Data from patent US11896594B2, “Palatable antiparasitic formulations” (Zoetis Services LLC, priority 2018, dated 2024).

How the values were obtained:
[1] = Moxidectin degradation in compressed tablets on accelerated stability (40° C./75% RH); format: physicochemical; conditions: for moxidectin degradation in the final tablets: 3 months 40°/75% RH; for moxidectin degradation: 40° C./75% RH; for moxidectin degradation in the finished product: 6 months accelerated stability
Description: For the moxidectin granulation, four different polymers were screened. Initially, the moxidectin-polymer ratio was about 1:160 (about 21.82 w/w % polymer of intra granular portion). The polymers included hypromellose [hydroxypropylmethyl cellulose (HPMC), Poloxamer 188 (P188), ethyl cellulose, and hydroxypropyl methyl cellulose acetyl succinate MG (HPMC AS MG). […] Use of the polymers in the moxidectin granulation process provided stability to the moxidectin. […] HPMC concentration was then assessed to determine the effect on moxidectin stability in compressed tablets. Concentrations of moxidectin:HPMC were 1:20, 1:80, 1:120, and 1:160 in the moxidectin granulation. These amounts accounted for about 2.72 w/w %, 10.91 w/w %, 16.36 w/w %, and 21.82 w/w % of the moxidectin granulation, respectively. […] Therefore, the 1:80 ratio of moxidectin to HPMC was used to prepare the moxidectin granulations. The amount of HPMC in the moxidectin granulation is about 6 to 18 w/w %; the preferred amount is about 10 to 12 w/w %; and the most preferred amount is about 11 w/w %. In the final composition, the amount of HPMC is about 2.0 w/w % to about 4.0 w/w % of the total tablet weight; and more preferably, about 2.0 to 3 w/w % of the total tablet weight; and even more preferably, about 2.0 to 2.5 w/w % of the total tablet weight. To further control moxidectin degradation, the stability enhancer, meglumine, and the antioxidant, BHT, were added to the moxidectin granulation. […] Use of the higher concentration (2.72 w/w %) of meglumine was used initially to better control the acid catalyzed degradants. However, at 6 months, there was a greater increase in base catalyzed degradation of moxidectin at this concentration of meglumine. […] Similarly, moxidectin degradation was assessed using varying amounts of BHT in the moxidectin granulation.

D. immitis = experiment: Prevention of heartworm disease in dogs; format: in vivo; conditions: sensitive isolates; single dose; dogs

CO/N=C1\C[C@]2(C[C@@H]3C[C@@H](C/C=C(\C)C[C@@H](C)/C=C/C=C4\CO[C@@H]5[C@H](O)C(C)=C[C@@H](C(=O)O3)[C@]45O)O2)O[C@H](/C(C)=C/C(C)C)[C@H]1C [moxidectin]
moxidectin degradation in the final tablets ([1]; BHT 0 w/w % in moxidectin granulation): about 2.7% | moxidectin degradation in the final tablets ([1]; BHT 0.095 w/w % in granulation (0.018 w/w % of tablet)): about 1.4% | moxidectin degradation in the final tablets ([1]; BHT 0.19 w/w % in granulation (0.037 w/w % of tablet)): about 2.3% | moxidectin degradation in the final tablets ([1]; BHT 0.38 w/w % in granulation (0.074 w/w % of tablet)): about 2.2% | moxidectin degradation ([1]; HPMC AS MG in moxidectin granulation (about 1:160), 3-months): 12.1% | moxidectin degradation ([1]; HPMC in moxidectin granulation (moxidectin-polymer about 1:160), 3-months): 3.6% | moxidectin degradation ([1]; P188 (Poloxamer 188) in moxidectin granulation (about 1:160), 3-months): 5.2% | total moxidectin degradation ([1]; compressed tablets manufactured with HPMC, 6-month accelerated stability): 5-6% | moxidectin degradation ([1]; ethyl cellulose in moxidectin granulation (about 1:160), 3-months): 7.4% | moxidectin degradation in the final tablets ([1]; meglumine 0 w/w % in moxidectin granulation): about 2.4% | moxidectin degradation in the final tablets ([1]; meglumine 1.36 w/w % in granulation (0.27 w/w % of tablet)): about 1.0% | moxidectin degradation in the final tablets ([1]; meglumine 2.72 w/w % in granulation (0.54 w/w % of tablet)): about 0.7% | moxidectin degradation in the finished product ([1]; moxidectin:HPMC 1:20 (2.72 w/w % of granulation)): 5.04% | moxidectin degradation in the finished product ([1]; moxidectin:HPMC 1:80 (10.91 w/w % of granulation)): 2.41% | moxidectin degradation in the finished product ([1]; moxidectin:HPMC 1:120 (16.36 w/w % of granulation)): 2.26% | moxidectin degradation in the finished product ([1]; moxidectin:HPMC 1:160 (21.82 w/w % of granulation)): 1.75% | moxidectin degradation ([1]; without the use of a polymer, compressed tablets, 2-months): 16.7% | efficacy against sensitive D. immitis isolates (D. immitis): 100%
